Results published in the supplement of paper PMC13380429.

What was measured:
Settings in all cases: 72 h
U2OS [1] = assay: cell viability relative to DMSO; higher = less toxic
Vero E6 [2] = assay: as above
Calu-3 [3] = assay: as above
Caco-2 [4] = assay: as above
HepG2 [5] = assay: as above
U2OS [6] = assay: drug sensitivity score (DSS) for viability; higher = more toxic; extreme values may be limits of the assay
Vero E6 [7] = assay: as above
Calu-3 [8] = assay: as above
Caco-2 [9] = assay: as above
HepG2 [10] = assay: as above
U2OS [11] = assay: relative viability EC50 (midpoint between 100% and the lowest measured viability); higher = less toxic
Vero E6 [12] = assay: as above
Calu-3 [13] = assay: as above
Caco-2 [14] = assay: as above
HepG2 [15] = assay: as above

Row | SMILES | cell viability (U2OS [1]; 1 nM) | cell viability (U2OS [1]; 10 nM) | cell viability (U2OS [1]; 100 nM) | cell viability (U2OS [1]; 1000 nM) | cell viability (U2OS [1]; 10000 nM) | cell viability (Vero E6 [2]; 1 nM) | cell viability (Vero E6 [2]; 10 nM) | cell viability (Vero E6 [2]; 100 nM) | cell viability (Vero E6 [2]; 1000 nM) | cell viability (Vero E6 [2]; 10000 nM) | cell viability (Calu-3 [3]; 1 nM) | cell viability (Calu-3 [3]; 10 nM) | cell viability (Calu-3 [3]; 100 nM) | cell viability (Calu-3 [3]; 1000 nM) | cell viability (Calu-3 [3]; 10000 nM) | cell viability (Caco-2 [4]; 1 nM) | cell viability (Caco-2 [4]; 10 nM) | cell viability (Caco-2 [4]; 100 nM) | cell viability (Caco-2 [4]; 1000 nM) | cell viability (Caco-2 [4]; 10000 nM) | cell viability (HepG2 [5]; 1 nM) | cell viability (HepG2 [5]; 10 nM) | cell viability (HepG2 [5]; 100 nM) | cell viability (HepG2 [5]; 1000 nM) | cell viability (HepG2 [5]; 10000 nM) | drug sensitivity score (U2OS [6]) | drug sensitivity score (Vero E6 [7]) | drug sensitivity score (Calu-3 [8]) | drug sensitivity score (Caco-2 [9]) | drug sensitivity score (HepG2 [10]) | relative viability EC50 (U2OS [11]) | relative viability EC50 (Vero E6 [12]) | relative viability EC50 (Calu-3 [13]) | relative viability EC50 (Caco-2 [14]) | relative viability EC50 (HepG2 [15])
1 | CCn1c(=O)n(C2=C(CO)CN(CC3CCCCCCC3)CC2)c2ccccc21 [trap-101] | 98.2% | 101% | 97.4% | 98.8% | 93.8% | 98% | 96.8% | 95.6% | 96.3% | 98.9% | 99.6% | 106% | 94.5% | 104% | 92.6% | 102% | 89.9% | 96.7% | 93.6% | 83.5% | 97.8% | 96.7% | 91.5% | 96.5% | 98% | 0 | 0 | 0 | 0.3 | 0 | > 10 µM | > 10 µM | > 10 µM | > 10 µM | > 10 µM
2 | Oc1cc(Cl)ccc1Oc1ccc(Cl)cc1Cl [triclosan] | 98.7% | 96.5% | 98.3% | 97.9% | 99.3% | 97% | 104% | 106% | 112% | 95.3% | 97.7% | 92.3% | 106% | 101% | 107% | 105% | 102% | 94.5% | 95.6% | 126% | 105% | 99.3% | 102% | 93.8% | 113% | 0 | 0 | 0 | 0 | 0 | > 10 µM | > 10 µM | > 10 µM | > 10 µM | > 10 µM
3 | COc1cc(C(=O)N2CCOCC2)cc(OC)c1OC [trimetozine] | 95.8% | 98.3% | 96.8% | 99.9% | 96.6% | 106% | 107% | 108% | 94.8% | 99.9% | 98.9% | 94.8% | 101% | 92.1% | 102% | 95.4% | 105% | 86.4% | 108% | 96.6% | 93.8% | 92.9% | 102% | 95.3% | 98.8% | 0 | 0 | 0 | 0 | 0 | > 10 µM | > 10 µM | > 10 µM | > 10 µM | > 10 µM
4 | CN(C)CCN1C(=O)c2cccc3cc(NC(N)=O)cc(c23)C1=O [unbs-5162] | 104% | 99.7% | 96.4% | 101% | 88% | 108% | 101% | 107% | 95.1% | 90.8% | 100% | 105% | 95.9% | 88.6% | 78.4% | 96.5% | 99.3% | 93.5% | 104% | 96% | 100% | 101% | 93.7% | 86.5% | 42.2% | 0 | 0 | 1.5 | 0 | 5.3 | > 10 µM | > 10 µM | > 10 µM | > 10 µM | 1.61 µM
